# Values joined by “and” are separate entries in the source; they are usually repeats but may differ in a detail not shown here. Identical values can stand only once.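 Protocol summary: plate cells (96-well), add compound at 5 concentrations, incubate 48 h, interpolate endpoints linearly. Here, GI50 denotes the concentration required for 50% inhibition of growth. At the TGI there is no net growth.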
# Assays:
# Assay in all cases: NCI-60 cell line screen, 48 h
# [1] = tested on: MALME-3M melanoma
# [2] = tested on: MDA-MB-231 breast
# [3] = tested on: CCRF-CEM leukemia
# [4] = tested on: MDA-MB-435
# [5] = tested on: U251 CNS
# [6] = tested on: A549 NSCLC
# [7] = tested on: EKVX NSCLC
# [8] = tested on: OVCAR-5 ovarian
# [9] = tested on: HCC-2998 colon
# [10] = tested on: BT-549 breast
Compound,TGI [1],TGI [2] [µM],TGI [3] [µM],TGI [4] [µM],TGI [5],TGI [6],TGI [7],TGI [8] [µM],TGI [9],GI50 [1] [µM],GI50 [2] [µM],GI50 [3] [µM],GI50 [4] [µM],GI50 [5] [µM],GI50 [6] [µM],GI50 [7] [µM],GI50 [8] [µM],GI50 [9] [µM],GI50 [10] [µM],TGI [10] [µM]
NS(=O)(=O)c1cc2c(cc1Cl)NCNS2(=O)=O,> 100 µM,> 100,> 100,> 100,> 100 µM,> 100 µM,> 100 µM,> 100,> 100 µM,,,,,,,,,,,
N#CC1(CCCCl)CCCCC1,> 100 µM,,> 100,,> 100 µM,> 100 µM,> 100 µM,> 100,> 100 µM,,,,,,,,,,,
CC(=O)O[C@H]1C[C@@H]2[C@@]3(C)CC[C@H]4C[C@@]4(C)[C@@H]3CC[C@@]2(C)C2=CCC3=C(COC3=O)[C@]21C,26.4 µM,35.9,> 100,46.9,36.3 µM,44.4 µM,35 µM,39.5,51.4 µM,11,15.8,33.6,22.6,17.4,20.8,17.6,19.3,23.7,,
COc1cc(/C=C/c2cc(/C=C/c3ccc(O)c(OC)c3)n(C(=O)Nc3ccc(C)cc3)n2)ccc1O,3.57 µM,23,,0.391,3.48 µM,4.6 µM,5.02 µM,5.89,9.46 µM,0.924,1.46,,0.115,0.422,0.419,0.992,1.89,2.12,0.306,2.34
O=C(O)c1cn(C2CC2)c2cc(N3CCN(C(=O)N(c4ccccc4)c4nc(-c5ccccc5)cs4)CC3)c(F)cc2c1=O,,,> 100,,> 100 µM,> 100 µM,> 100 µM,,> 100 µM,,,0.276,,0.381,0.3,0.397,,0.595,0.349,6.81
CC(C)CCCC(C)C1CCC2C3CC([N+](=O)[O-])=C4CC(O)CCC4(C)C3CCC12C (centres undefined),39.2 µM,,42.9,,30.4 µM,47.1 µM,57.2 µM,,37.2 µM,,,,,,,,,,,
CCC12C=C(C(=O)OC)N3c4ccccc4C4CCN(CCC1)C2C43 (centres undefined),70.4 µM,,> 100,,> 100 µM,> 100 µM,> 100 µM,> 100,> 100 µM,,,,,,,,,,,
Cc1ccccc1NC(=O)CC(=O)NNCC(=O)Nc1nnc(-c2ccccc2)s1,,,,,> 100 µM,> 100 µM,> 100 µM,> 100,> 100 µM,,,,,,,,,,,
O=C1c2ccccc2-c2c1c1c(O)cccc1n2Cc1ccccc1,8.65 µM,> 100,,> 100,67.1 µM,> 100 µM,69.2 µM,51.2,39.1 µM,2.76,> 100,,19.1,15.2,16.8,16.5,16.4,12.7,20.5,56.1
c1cc(OCCCCCOc2cccc(-c3nc4ccccc4[nH]3)c2)cc(-c2nc3ccccc3[nH]2)c1,5.02 µM,30.9,,6.74,> 100 µM,,6.97 µM,> 100,28 µM,1.87,4.08,,2.26,3.07,,2.21,2.76,3.32,1.72,5
CC(C)(C)c1ccc(OCCOCCOc2ccc(C(C)(C)C)cc2S(N)(=O)=O)c(S(N)(=O)=O)c1,> 100 µM,,> 100,,> 100 µM,> 100 µM,> 100 µM,> 100,> 100 µM,,,,,,,,,,,
CC(=O)NC(CCCNC(=O)OCc1ccccc1)C(=O)NCc1ccccc1 (centres undefined),> 100 µM,,> 100,,> 100 µM,> 100 µM,> 100 µM,> 100,> 100 µM,,,,,,,,,,,
CC1(C)CC(=O)C(C(=O)Nc2cccs2)=C(O)C1,> 100 µM,,95.3,,> 100 µM,> 100 µM,> 100 µM,> 100,> 100 µM,,,,,,,,,,,
O=C(CC1(O)C(=O)Nc2c(Cl)ccc(Cl)c21)c1ccc(Cl)cc1 (centres undefined),71.8 µM,,,,84.5 µM,> 100 µM,> 100 µM,> 100,71 µM,,,,,,,,,,,
COc1ccc(C(C)Nc2cc(OC)c(OC)c(OC)c2)cc1 (centres undefined),> 29.7 µM,,> 100,,10 µM,> 100 µM,> 100 µM,> 100,> 72.2 µM,,,,,,,,,,,
O=C(CCN1CCOCC1)Nc1ccc(Cn2nnc3c2C(=O)c2nnn(Cc4ccc(NC(=O)CCN5CCOCC5)cc4)c2C3=O)cc1,0.747 µM,,> 100,0.799,18.4 µM,> 100 µM,> 100 µM,> 100,6.68 µM,0.247,,0.34,0.324,4.25,> 100,> 100,> 100,2.62,2.87,8.77
CN(C)c1ccc(/C=C2\CCc3ccccc3C2=O)cc1Br,> 100 µM,,> 100,,> 100 µM,> 100 µM,> 100 µM,> 100,> 100 µM,,,,,,,,,,,
COC1=CC(=O)C(O)=C(CC2(C)C(C)CCC3(C)C2CCCC3(C)C)C1=O (centres undefined),13.4 µM,,11.5,,13.8 µM,11.6 µM,69.7 µM,21.9,17.8 µM,,,,,,,,,,,
CN(C)[C@@H]1C(=O)C(C(=O)NCc2nc3[nH]cnc(=S)c3[nH]2)=C(O)[C@@]2(O)C(=O)C3=C(O)c4c(O)cccc4[C@@](C)(O)[C@H]3C[C@@H]12,> 100 µM,,> 100,,> 100 µM,> 100 µM,> 100 µM,> 100,> 100 µM,> 100,,1.02,,> 100,> 100,> 100,> 100,5.09,> 100,> 100
O=[N+]([O-])c1ccc(/C=C/c2ccc(/C=C/c3ccc([N+](=O)[O-])cc3[N+](=O)[O-])cc2)c([N+](=O)[O-])c1,> 100 µM,,> 100,,> 100 µM,> 100 µM,> 100 µM,> 100,> 100 µM,,,,,,,,,,,

Compound,TGI [1],TGI [2] [µM],TGI [3] [µM],TGI [4] [µM],TGI [5],TGI [6],TGI [7],TGI [8] [µM],TGI [9],GI50 [1] [µM],GI50 [2] [µM],GI50 [3] [µM],GI50 [4] [µM],GI50 [5] [µM],GI50 [6] [µM],GI50 [7] [µM],GI50 [8] [µM],GI50 [9] [µM],GI50 [10] [µM],TGI [10] [µM]
COc1cc2c(cc1OCCN1CCN(CCN3C(=O)c4cccc5cccc(c45)C3=O)CC1)N=C[C@@H]1CCCN1C2=O,,39.8,39,48.7,34.1 µM,47.3 µM,45.7 µM,35,,,19.9,19.9,23.4,16.1,18.7,21.1,19,,19,34.9
CN(C)CCCC1(c2ccc(F)cc2)OCc2cc(-c3csc4ccccc34)ccc21 (centres undefined),2.94 µM,2.68,,3.19,3.39 µM,3.66 µM,2.89 µM,2.95,3.14 µM,1.43,1.34,,1.73,1.69,1.82,1.51,1.55,1.65,,
C/C(=C\c1ccccc1)C(O)C(=O)c1nc2ccc(Cl)cc2[nH]c1=O (centres undefined),> 100 µM,,78.9,,> 100 µM,> 100 µM,> 100 µM,> 100,> 100 µM,,,,,,,,,,,
CN(C)CCNC(=O)c1cccc2c1nc(-c1cccnc1)c1ccccc12,,,43.5,,24 µM,18.3 µM,18.8 µM,34,20.2 µM,,,,,,,,,,,
C#CCCCCCC(=O)N[C@H]1C=C[C@@H]2/C=C(C)/C=C/[C@@H](C)[C@H]([C@H](C)[C@H](O)[C@@H](C)NC(C)=O)OC(=O)/C=C/C=C(C)\C=C\[C@]2(C)C1,17.9 µM,< 0.004,> 40,,> 40 µM,> 40 µM,> 40 µM,> 40,> 40 µM,0.567,< 0.004,0.479,,< 0.004,< 0.004,0.0213,6.53,6.16,< 0.004,> 40
CC(C)(C)C1CCC(O)(c2ccccc2)CC1 (centres undefined),> 100 µM and 63.2 µM,,> 100,,> 100 µM and 32.3 µM,> 100 µM and 89.2 µM,> 100 µM and 75.3 µM,> 100,> 100 µM and 60 µM,,,,,,,,,,,
ON1CCc2c([nH]c3ccccc23)C1c1ccc(Cl)cc1 (centres undefined),77.6 µM,,93.8,,29.8 µM,> 100 µM,> 100 µM,99.1,72.3 µM,,,,,,,,,,,
O=C1C[C@@H]2OCC=C3C[N+]4([O-])CC[C@]56c7ccccc7N1[C@H]5[C@H]2[C@H]3C[C@@H]64 (some centres undefined),> 100 µM,> 100,> 100,> 100,> 100 µM,> 100 µM,> 100 µM,> 100,> 100 µM,> 100,> 100,> 100,> 100,> 100,> 100,> 100,> 100,> 100,,
CC(C)(C)C1CC[C@H]2c3c([nH]c4ccccc34)[C@H]3C(=O)N(c4ccc(F)cc4)C(=O)[C@H]3[C@H]2C1 (some centres undefined),36.8 µM,,35.5,,20.8 µM,26.1 µM,36.9 µM,80,28.4 µM,,,,,,,,,,,
CC1(C)CC2=NO[Se]3=C2C(=NO3)C1,,16.4,30.4,15.5,18.7 µM,14.2 µM,9.68 µM,20.5,16.8 µM,,,,,,,,,,,7.28
O=C(/C=C(\[O-])c1ccccc1)CCCCCCC(=O)/C=C(\[O-])c1ccccc1.O=C(/C=C(\[O-])c1ccccc1)CCCCCCC(=O)/C=C(\[O-])c1ccccc1.O=C(/C=C(\[O-])c1ccccc1)CCCCCCC(=O)/C=C(\[O-])c1ccccc1.[Y+3].[Y+3],> 50 µM,,,,> 50 µM,> 50 µM,> 50 µM,> 50,> 50 µM,> 50,,,,25.7,> 50,> 50,> 50,> 50,,
COc1ccc2cc3n(c(=O)c2c1)CCc1c-3cc(OC)c(OC)c1OC,> 100 µM,,> 100,,> 100 µM,> 100 µM,> 100 µM,> 100,> 100 µM,,,,,,,,,,,
COC(=O)C1CC(=O)O[C@H]1c1ccc(OC)c(OC)c1 (some centres undefined),> 100 µM,,> 100,,> 100 µM,> 100 µM,> 100 µM,> 100,> 100 µM,,,,,,,,,,,
CCCCC(C(=O)C(=O)Nc1ccccc1CC)C(=O)C(C)C (centres undefined),> 100 µM,,> 100,,> 100 µM,> 100 µM,> 100 µM,> 100,> 100 µM,,,,,,,,,,,
N#Cc1c(CC(=O)O)cc(=O)n2c1[nH]c1ccccc12,> 100 µM,,,,> 100 µM,> 100 µM,> 100 µM,> 100,> 100 µM,,,,,,,,,,,
O=C1c2ccccc2C2(O)N(c3ccccc3)C(=S)N(c3ccccc3)C12O (centres undefined),> 100 µM,,> 100,,> 100 µM,> 100 µM,> 100 µM,> 100,> 100 µM,,,,,,,,,,,
CN(C)c1ccc(/C=c2/sc3nc(=O)c(-c4ccccc4NC(=O)C(F)(F)F)nn3c2=O)cc1,> 100 µM,,> 100,,> 100 µM,> 100 µM,> 100 µM,> 100,> 100 µM,,,,,,,,,,,
O=C1c2ccccc2N1C(=O)c1ccccc1[N+](=O)[O-],> 100 µM,,> 100,> 100,> 100 µM,> 100 µM,> 100 µM,> 100,> 100 µM,,,,,,,,,,,
O=c1c2cc(Br)ccc2nc(CNc2ccccc2)n1-c1ccccc1,28.4 µM,,13.7,,31.8 µM,> 62.7 µM,40.7 µM,> 100,33.7 µM,,,,,,,,,,,
